Measurements published in patent US20260055080A1, “NOVEL SUBSTITUTED QUINOLINE AND TETRAHYDRONAPHTHALENE CARBOXYLIC ACID DERIVATIVES AND THERAPEUTIC USES THEREOF” (SANOFI, priority 2022, published 2026).

Target: T1, ERα (Homo sapiens, UniProt P03372)
T1 construct: measured to determine the levels of ERα and DNA respectively; host or cells: MCF7
T1 sequence (P03372 1-595): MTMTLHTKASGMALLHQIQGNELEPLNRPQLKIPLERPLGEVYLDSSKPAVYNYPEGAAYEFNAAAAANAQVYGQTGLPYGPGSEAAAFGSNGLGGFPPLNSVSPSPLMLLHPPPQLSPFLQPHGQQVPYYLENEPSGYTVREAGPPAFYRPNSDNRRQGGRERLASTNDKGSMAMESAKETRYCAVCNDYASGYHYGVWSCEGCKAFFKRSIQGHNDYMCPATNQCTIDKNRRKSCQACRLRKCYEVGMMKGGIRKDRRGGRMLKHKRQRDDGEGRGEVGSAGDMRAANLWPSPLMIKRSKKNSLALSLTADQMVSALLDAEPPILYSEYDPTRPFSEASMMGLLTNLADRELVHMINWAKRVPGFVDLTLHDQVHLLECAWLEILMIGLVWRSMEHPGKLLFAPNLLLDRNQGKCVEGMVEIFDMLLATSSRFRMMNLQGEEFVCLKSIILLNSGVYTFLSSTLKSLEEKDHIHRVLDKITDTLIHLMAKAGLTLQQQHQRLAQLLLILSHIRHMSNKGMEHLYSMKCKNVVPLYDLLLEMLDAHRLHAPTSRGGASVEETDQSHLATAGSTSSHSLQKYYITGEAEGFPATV
Test: Estrogen receptor degradation activity: breast cancer cell ERα in cell western assay
Assay type: cell-based
Settings: MCF7 cells; for % Degradation At 0.3 μM: 4 hours, relative to fulvestrant 0.1 μM positive control; for DC50: 4 hours post compound addition, concentration which degrades 50% of the estrogen receptor, read-out: Degradation IC50
Description: Test: Estrogen Receptor Degradation Activity
Said test involves measuring the in vitro degradation activity of the compounds of the Table 1.
The measurements of the degradation activities were made using a breast cancer cell ERα in cell western assay as described hereunder.
MCF7 cells (ATCC) were seeded in 384 wells microplate (collagen coated) at a concentration of 10000 cells/30 μL per well in red phenol free MEM alpha medium (invitrogen) containing 5% charcoal dextran striped FBS. The following day, 9 points serial 1:5 dilution of each compound was added to the cells in 2.5 μL at final concentrations ranging from 0.3-0.0000018 μM (in Table 2), or 0.1 μM for fulvestrant (using as positive control). At 4 hours post compound addition the cells were fixed by adding 25 μL of formalin (final concentration 5% formalin containing 0.1% triton) for 10 minutes at room temperature and then washed twice with PBS. Then, 50 μL of LI-COR blocking buffer containing 0.1% Triton was added to plate for 30 minutes at room temperature. LI-COR blocking buffer was removed and cells were incubated overnight at cold room with 50 μL anti-ER rabbit monoclonal antibody (Thermo scientific MA1-39540) diluted at 1:1000 in LI-COR blocking buffer containing 0.1% tween-20. Wells which were treated with blocking buffer but no antibody were used as background control. Wells were washed twice with PBS (0.1% tween-20) and incubated at 37° C. for 60 minutes in LI-COR (0.1% tween-20) containing goat anti-rabbit antibody Alexa 488 (1:1000) and Syto-64 a DNA dye (2 μM final concentration). Cells were then washed 3 times in PBS and scanned in ACUMEN explorer (TTP-Labtech). Integrated intensities in the green fluorescence and red fluorescence were measured to determine the levels of ERα and DNA respectively.
The degradation activity with respect to estrogen receptors in this test is given by the concentration which degrades 50% of the estrogen receptor (or IC50) in nM.
The % of ERα levels decrease were determined as follows: % inhibition=100*(1-(sample-fulvestrant: DMSO-fulvestrant)).

Row | % Degradation At 0.3 μM | DC50 | Compound
1 | 51% | 136 nM | O=C(O)c1ccc2c(C(=O)c3ccc(OC4CN(CCCF)C4)cc3)c(-c3ccc(C(F)(F)F)cc3F)cnc2c1 [Compound 1]
2 | 62% | 196 nM | O=C(O)c1ccc2c(C(=O)c3ccc(OCCN4CC(CF)C4)cc3)c(-c3ccc(C(F)(F)F)cc3F)cnc2c1 [Compound 2, 3-(2-fluoro-4-(trifluoromethyl)phenyl)-4-(4-(2-(3-(fluoromethyl)azetidin-1-yl)ethoxy)benzoyl)quinoline-7-carboxylic acid]
3 | 49% | 252 nM | CCNCCc1ccc(CN(CC)c2cc(OC)ccc2[C@@H]2CCc3cc(C(=O)O)ccc3C2)cc1 [Compound 3, (R)-6-(2-(ethyl(4-(2-(ethylamino)ethyl)benzyl)amino)-4-methoxyphenyl)-5,6,7,8-tetrahydronaphthalene-2-carboxylic acid]
